Reference: patent publication US20040058851A1, “Specific autoimmune reactions against isomerised/optically inverted epitopes: application for diagnosis of autoimmune diseases” (priority 1999, published 2004)
No end group written: not given here.

Key:
[1] = tested on: immunoaffinity purified RA auto-antibodies; test: Immuno-blotting of cellulose-bound spot peptides with immunoaffinity purified RA auto-antibodies (Example 5); format: binding, human; conditions: IgM RF eluted from IgG Sepharose, 1 μg/mL
Excerpt: Analysis of IgM auto-antibodies opens up the possibility of removing endogenous IgG from the serum samples prior to analysis for auto-antibodies.
1. IgG is coupled to CNBr activated Sepharose using the manufacturers instructions (Pharmacia, Upsala, Sweden).
2. The IgG Sepharose is packed in a suitable column (i.e. a disposable DG10 column, BioRad laboratories, Richmond, Calif.). The column is washed with at least 10 column volumes PBS and with 10 column volumes 0.1 M sodium acetate, 0.15 M sodium chloride pH 3.5 and finally equilibrated in PBS.
3. Serum from RA patients is diluted 10 times in PBS and loaded on the column. The column is washed with PBS until the absorbency (OD 280 nm) reaches base-line.
4. Bound RF's are eluted with 0.1 M sodium acetate, 0.15 M sodium chloride pH 3.5.
5. IgM is separated from IgG and IgA by gel-filtration on a Sephadex G-200 column in 0.1 M sodium acetate, 0.15 M sodium chloride pH 3.5.
6. Eluted IgM is diluted in PBS-BT to 1 μg/mL and assayed as described below.
Seven amino-acid peptides extending over the Asn-315 residue were synthesised by spot synthesis using Whatman 540 paper (Maidstone, U.K.), using the previously described procedures (Frank, 1992, Kramer et al 1994). The peptides were automatically prepared using a spot synthesis method (Abimed, Langenfeld, F R G). The following peptides were synthesised, covalently attached via the carboxy-terminus: […]

[2] = tested on: human immunoglobulin in sera from patients with multiple sclerosis; test: Homogeneous RIA with 125I BSA-BS3 MBP octapeptide tracer in MS and control sera (Example 6); format: binding; conditions: free peptide 10 μg/ml, 25 μl; % inhibition higher in MS sera than control sera (p=0.008); FIG. 9C
Excerpt: For this purpose the MBP derived octapeptide Pro-Ser-Glu-γ-Gly-Lys-Gly-Arg-Gly (γL) was manufactured synthetically using standard FMOC chemistry. The peptide was conjugated to bovine serum albumin […] by Bis-[sulfosuccinimidyl]suberate(BS^3) according to the manufacturers instructions (Pierce) and iodinated with ^125I using the chloramine T protocol as described in Example 4.
Serum from 9 MS-patients and 8 healthy persons are reacted overnight with ^125I—BSA-S^3-Pro-Ser-Glu-y-Gly-Lys-Gly-Arg-Gly followed by precipitation of immune complexes with protein A Sepharose. Serum samples are diluted 1:200 in IMP buffer. The ^125I BSA-BS^3-Pro-Ser-Glu-y-Gly-Lys-Gly-Arg-Gly tracer is diluted in IMP buffer (to an activity of 100000 CPM/25 μl). Seventy-five Al of diluted serum sample is mixed with 25 μl tracer and 25 μl of either IMP buffer or free (unconjugated/unlabelled) Pro-Ser-Glu-y-Gly-Lys-Gly-Arg-Gly peptide (in a concentration of 10 μg/ml in IMP buffer) is added to this mixture. This mixture incubated overnight at 4° C. Protein A Sepharose (PAS) 20 μl/sample vial is weighed out and washed 3 times with 10 ml IMP washing buffer, and transferred to eppendorf 1.5 ml tubes using a repeater pipette. The PAS is sedimented by centrifugation at 2000 RPM 2 min., and the supernatant is aspirated using a suction device (or a pipette). […]

RA autoantibodies = test: Competition ELISA: sera pre-incubated with peptides, then Thy-GA-Trp-Leu-*Asx-Gly-Lys-Glu-Tyr coated plates (Example 3); format: binding, human; conditions: 6 RA sera; 50 μl competitor at 50 μg/ml; 17 hours at 4° C.; FIG. 6
Procedure: The binding of RA autoantibodies to the Thy-GA-Trp-Leu-*Asx-Gly-Lys-Glu-Tyr coated plates as described above could be competed out by pre-incubating the sera with Trp-Leu-*Asx-Gly-Lys-Glu-Tyr peptide in solution. The experiment was carried out as follows. Serum samples were diluted one-hundred fold in 10 mM Na-phosphate, 140 mM NaCl, 0.1% tween-20, 1% BSA pH 7.4 (assay buffer). Two-hundred μl was added to 1.5 ml polypropylene tubes followed by addition of 50 μl of the following reagents dissolved in assay buffer at a concentration of 50 μg/ml:
1. Trp-Leu-Asp-β-Gly-Lys-Glu-Tyr. (βL form of the epitope)
2. Trp-Leu-Asn-Gly-Lys-Glu-Tyr (αL form of the epitope)
3. Thy-GA-Trp-Leu-*Asx-Gly-Lys-Glu-Tyr conjugate (prepared as described in example 2).
The tubes were placed at 4° C. for 17 hours, and one-hundred μl of the mixture was added into MTP coated with Thy-GA-Trp-Leu-*Asx-Gly-Lys-Glu-Tyr conjugate. The assay was performed as described above under example 2.

[3] = tested on: auto-antibodies in RA sera; test: ELISA of serum auto-antibodies on MTP coated with Thy-GA peptide conjugate (Example 2); format: binding, human; conditions: RA RF+ sera vs RA RF- sera vs control sera; serum diluted one-hundred fold; conjugate coated at 10 μg/ml; FIG. 5
Excerpt: It was investigated whether auto-antibodies would recognise an Asn-315 derived septa-peptide and whether such auto-antibodies are a characteristic feature of rheumatoid arthritis. In order to carry out such investigations the IgG Fc Asn-315 derived (βL) septa-peptide Trp-Leu-Asp-β-Gly-Lys-Glu-Tyr, was manufactured synthetically. The peptide used was a preparation of linear (αL form) Trp-Leu-Asn-Gly-Lys-Glu-Tyr peptide heated to promote isomerisation by the following procedure. The peptide was dissolved in the buffer and heated for 4 hours at 90° C. to promote isomerisation and/or optical inversion. The resulting mix of isomerised (βL) optically inverted (αD and βD) and linear (αL) peptides were analysed by RP-HPLC using a 15-35% acetonitrile gradient in 0.1% TFA over 10 minutes with a flow rate of 1 ml/min, and the isomerisation status of the resulting peaks were studied by amino-acid analysis as described above. This peptide was dissolved at 5 mg/ml in 0.2 M Na-Phosphate pH 9.2. […]
0.5 ml thyroglobulin (30 mg/ml) in 0.1 M Na-phosphate buffer pH 8.0, was added drop-wise (over 2 minutes) and under constant mixing to 0.5 mL of the following solution: 10% GA, 40% H2O, 50% 0.2 M Na-Phosphate pH 8.0. […] The final volume was adjusted to 1500 μL and the protein concentration was determined by a BioRad protein assay performed according to the manufacturers instructions. […]

[4] = tested on: auto-antibodies reactive with isomerised IgG Fc Asn-315 derived peptides; test: Homogeneous RIA with 125I Thy-GA-Trp-Leu-*Asx-Gly-Lys-Glu-Tyr tracer, competition with peptides (Example 4); format: binding, human; conditions: 25 μl of 100, 1000 or 10,000 ng/ml competitor; peptide significant in the highest concentration; P=0.01 by Student's T-Test; FIG. 8
Procedure: A homogeneous RIA assay was developed for measurement of auto-antibodies with reactivity towards the isomerised form of the epitope Trp-Leu-Asn-Gly-Lys-Glu-Tyr derived from the IgG CH^2 region. The assay was performed by incubating serum samples with ^125I Thy-GA-Trp-Leu-*Asx-Gly-Lys-Glu-Tyr over-night followed by precipitation of immune-complexes with protein A Sepharose.
Serum samples are diluted 1:200 in IMP buffer (IMP-buffer: 10 mM Na-Phosphate, pH 7.4, 140 mM NaCl, 5 mM EDTA, 0.5% Triton X-100, 0.1% BSA, 10 μg/ml soy-bean trypsin inhibitor). A Thy-GA-Trp-Leu-*Asx-Gly-Lys-Glu-Tyr conjugate is prepared as described in example 2 and iodinated with ^125I using the chloramine T protocol: 100 μg of the conjugate is diluted in 0.25 M Na2HPO4 to a total volume of 140 μl. 1.5 mCi Na^125I is added followed by 10 μL Chloramin-T (1 mg/ml, prepared freshly). The solution is vortexed for 30 seconds and 150 μL methionine (1 mg/ml) is added and immediately vortexed for 120 sec. The tracer is purified on size exclusion column (type: BIOSEP SEC S-2000, size: 300×7.80 mm) equilibrated with PBS containing 1% BSA Flow rate 1.0 ml/min. 500 μl fractions are collected and analysed in a scintillation counter (γ-counter). The fractions containing the tracer are pooled and used in the homogeneous RIA assay format. […]

Row | Substance | reactivity of purified RA auto-antibodies towards cellulose-bound peptide [1] | competition of the binding of RA autoantibodies to Thy-GA-Trp-Leu-*Asx-Gly-Lys-Glu-Tyr coated plates (RA autoantibodies) | also measured
1 | His-Gln-Asp-Trp-Leu-Asp-β-Gly [peptide IV] | strong reactivity |  | 
2 | Pro-Ser-Glu-γ-Gly-Lys-Gly-Arg-Gly |  |  | inhibition of binding of the 125I conjugate to human immunoglobulin by free peptide [2]: specifically inhibited
3 | Trp-Leu-*Asx-Gly-Lys-Glu-Tyr (WLNGKEY; not fully specified (residue 3); printed as Trp-Leu-*Asx-Gly-Lys-Glu-Tyr; also: position 3 Asx: mixture of αD Asn/Asp, βD and βL Asp after heat isomerisation) [linear Trp-Leu-Asn-Gly-Lys-Glu-Tyr heated 4 hours at 90° C; in b143 coated as Thy-GA conjugate] |  | competed out | auto-antibody reactivity (ELISA signal, absorbency at 450 nm) compared between patient groups [3]: elevated auto-antibody reactivity
4 | Trp-Leu-Asp-β-Gly-Lys-Glu-Tyr |  | able to compete out the binding | reactivity in RIA competition (percent inhibition in the presence of competing peptide), group basis [4]: significant reactivity
5 | Trp-Leu-Asp-β-Gly-lys-Glu-Tyr [VII] | strong reactivity |  | 
